Experiment in all cases: cells
Common to all, as to set-up: growth inhibition of A375 parental and resistant melanoma cells, dose-response curves
What all share (settings): Homo sapiens, A-375, 96 h; read-out: Phendione IC50

For assay [1], the system named is A375 BRAFi + MEKi resistant.
Assay [2] deals with A375. As for the experimental part:
(§1) Figure 2. Phendione is a small molecule inhibitor targeting PP2A. (A) Immunoblots of A375 cell lysates collected after 3 h of drug treatment as indicated; i.e., increasing concentrations of LB100 compared with 0.2 µM phendione (left) and increasing concentrations of phendione compared with 3 µM pyrene (right). DMSO was used as negative control (vehicle). (B) Growth inhibition curves of A375 cells and IC50 values after treatment with phendione or LB100 for 96 h. Data are presented as mean ± SD of three independent experiments. (C) Phosphatase activity assay for PP2A core enzyme (complex of regulatory subunit Aα and catalytic subunit Cα; top), PP1 catalytic subunit Cα (middle) and PP1 catalytic subunit Cβ (bottom) incubated with phendione or pyrene at indicated concentrations. […] IC50s (micromolar) were calculated and is shown as an inset in each graph. […] (G) Quantification of cell apoptosis measured by Annexin V staining flow cytometry. Parental A375 and A375 BRAFi-resistant cells were treated with vehicle or increasing concentration of phendione as indicated in the panels for 24 h before apoptotic cells were measured by flow cytometry. […] Representative images are shown at the left and quantification results are shown at the right. […] (I,J) Quantification of reactive oxygen species (ROS) production measured by flow cytometry in A375 (I) and A375 BRAFi-resistant (J) cells. […]

The subject of assay [3] is A375 BRAFi resistant. The procedure:
as §1

As a reminder, the IC50 is the midpoint of a concentration-inhibition curve.

On to `O=C1C(=O)c2cccnc2-c2ncccc21` [phendione, 1,10-phenanthroline-5,6-dione], for which the figures for the concentration for half-maximal inhibition (IC50) in assay [1], in assay [2] and in assay [3] were 119 nM, 94 nM and 113 nM, respectively.

The record behind these values is article PMC7197350, “Targeted chemotherapy overcomes drug resistance in melanoma” (Genes & Development, 2020).
